The values below come from patent publication US11166959B2, “Isofuranone compounds useful as HPK1 inhibitors” (BRISTOL-MYERS SQUIBB COMPANY, priority 2017, dated 2021).

One test deals with T1, HPK1 (Homo sapiens, UniProt Q92918).
T1 construct: purchased SignalChem M23-11G
T1 sequence (Q92918 1-346 limits assumed): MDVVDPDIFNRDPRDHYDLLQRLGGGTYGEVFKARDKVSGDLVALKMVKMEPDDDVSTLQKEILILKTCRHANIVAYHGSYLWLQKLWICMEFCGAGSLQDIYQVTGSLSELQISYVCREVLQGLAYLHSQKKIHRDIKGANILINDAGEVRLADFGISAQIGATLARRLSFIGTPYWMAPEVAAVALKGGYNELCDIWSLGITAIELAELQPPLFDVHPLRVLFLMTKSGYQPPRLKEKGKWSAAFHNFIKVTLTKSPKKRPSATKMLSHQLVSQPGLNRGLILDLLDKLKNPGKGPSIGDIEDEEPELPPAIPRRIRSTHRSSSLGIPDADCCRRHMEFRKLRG
The test can be described thus: HPK1 Inhibition Assay (kinase reaction, Caliper capillary electrophoresis). In kind it is biochemical. The conditions noted are these: for IRAK4/HPK1 Ratio: ratio of the IRAK4 IC50 value to the HPK1 IC50 value. The gist of the method:
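Kinase reactions ran 3 h and were stopped with 1 mM EDTA, with enzyme level and time set for at most 20-30% peptide substrate conversion. Phosphorylated and unphosphorylated peptide were separated by capillary electrophoresis to measure conversion. IC50 derived from 11 compound concentrations.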

A further test concerns the target T2, IRAK4 (Homo sapiens, UniProt Q9NWZ3).
T2 construct: 1 nM IRAK4 (160-460); purchased SignalChem M24016
T2 sequence (Q9NWZ3 160-460): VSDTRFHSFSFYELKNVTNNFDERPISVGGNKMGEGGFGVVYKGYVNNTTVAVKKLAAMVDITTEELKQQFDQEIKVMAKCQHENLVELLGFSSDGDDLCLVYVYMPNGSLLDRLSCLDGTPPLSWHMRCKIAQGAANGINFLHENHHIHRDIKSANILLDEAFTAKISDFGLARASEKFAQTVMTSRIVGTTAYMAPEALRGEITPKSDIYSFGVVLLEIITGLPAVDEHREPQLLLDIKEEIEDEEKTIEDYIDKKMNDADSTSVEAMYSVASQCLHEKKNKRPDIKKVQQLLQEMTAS
The test can be described thus: IRAK4 Inhibition Assay (kinase reaction, Caliper capillary electrophoresis). In kind it is biochemical. To be noted: 500 μM ATP, 11 concentrations.

[1] abbreviates: 0.625 nM HPK1, 22 μM ATP, 11 concentrations, read-out: HPK1 IC50.

Molecules are shown by their SMILES. Like-named read-outs stand apart in the source and are kept apart here. Some results are limits rather than exact numbers.

As a reminder, the IC50 is the midpoint of a concentration-inhibition curve. Consider `CC1(C)OC(=O)c2ccc(Nc3ncc(C(=O)NNC(=O)C4CC4)c(N[C@H](CO)c4ccccc4)n3)cc21` [Example 62, (S)—N′-(cyclopropanecarbonyl)-2-((3,3-dimethyl-1-oxo-1,3-dihydroisobenzofuran-5-yl)amino)-4-((2-hydroxy-1-phenylethyl)amino)pyrimidine-5-carbohydrazide], for which the IC50 is below 50 nM at HPK1 (setting [1]) and 250 to 1000 nM on IRAK4. For the same molecule, the “IRAK4/HPK1 Ratio” value on HPK1 is given as “C (C=>50)”.
Regarding `CC1(C)OC(=O)c2ccc(Nc3ncc(C(=O)NCc4ccccn4)c(N[C@H](CO)c4ccccc4)n3)cc21` [Example 6, 2-[(3,3-dimethyl-1-oxo-1,3-dihydro-2-benzofuran-5-yl)amino]-4-{[(1S)-2-hydroxy-1-phenylethyl]amino}-N-[(pyridin-2-yl)methyl]pyrimidine-5-carboxamide], the IC50 on HPK1 (setting [1]) is below 50 nM; on IRAK4, 50 to 250 nM. Moreover, the “IRAK4/HPK1 Ratio” value at HPK1 is on record as “B (B=10 to 50)”.
`CC1(C)OC(=O)c2ccc(Nc3cc(N[C@H](CO)c4ccccc4)c(-c4nc(C56CCN(CC5)CC6)no4)cn3)nc21` [Example 81, 2-{[5-(3-{1-azabicyclo[2.2.2]octan-4-yl}-1,2,4-oxadiazol-5-yl)-4-{[(1S)-2-hydroxy-1-phenylethyl]amino}pyridin-2-yl]amino}-7,7-dimethyl-5H,7H-furo[3,4-b]pyridin-5-one]: on HPK1, the IC50 is below 50 nM and the “IRAK4/HPK1 Ratio” value is reported as “C (C=>50)”. This molecule also displayed an IC50 at IRAK4 of 50 to 250 nM.
As for `CC(C)(O)c1ccccc1CNc1nc(Nc2ccc3c(c2)C(C)(C)OC3=O)ncc1-c1nc(C2CC2)no1` [Example 73, 5-{[5-(3-cyclopropyl-1,2,4-oxadiazol-5-yl)-4-({[2-(2-hydroxypropan-2-yl)phenyl]methyl}amino)pyrimidin-2-yl]amino}-3,3-dimethyl-1,3-dihydro-2-benzofuran-1-one], the IC50 at HPK1 (setting [1]) lay within 50 to 250 nM; at IRAK4 it was 250 to 1000 nM. The “IRAK4/HPK1 Ratio” value on HPK1 was “B (B=10 to 50)”.
With `CC1(C)OC(=O)c2ccc(Nc3ncc(-c4nc(C56CC(N)(C5)C6)no4)c(N[C@H](CO)c4ccccc4)n3)cc21` [Example 47, 5-{[5-(3-{3-aminobicyclo[1.1.1]pentan-1-yl}-1,2,4-oxadiazol-5-yl)-4-{[(1S)-2-hydroxy-1-phenylethyl]amino}pyrimidin-2-yl]amino}-3,3-dimethyl-1,3-dihydro-2-benzofuran-1-one], the IC50 on HPK1 (setting [1]) was below 50 nM; against IRAK4 it was 250 to 1000 nM. Also, on HPK1, the “IRAK4/HPK1 Ratio” value is on record as “C (C=>50)”.
For the molecule `COCCNC(=O)c1cnc(Nc2ccc3c(c2)C(C)(C)OC3=O)nc1N[C@H](CO)c1ccccc1` [Example 8, 2-[(3,3-dimethyl-1-oxo-1,3-dihydro-2-benzofuran-5-yl)amino]-4-{[(1S)-2-hydroxy-1-phenylethyl]amino}-N-(2-methoxyethyl)pyrimidine-5-carboxamide], the IC50 was below 50 nM at HPK1 (setting [1]) and 50 to 250 nM against IRAK4. At HPK1, the “IRAK4/HPK1 Ratio” value is given as “B (B=10 to 50)”.
On to `CC1(C)OC(=O)c2ccc(Nc3ncc(C(=O)NCC4CN5CCC4CC5)c(N[C@H](CO)c4ccccc4)n3)cc21` (stereo partly drawn) [Example 25, N-({1-azabicyclo[2.2.2]octan-3-yl}methyl)-2-[(3,3-dimethyl-1-oxo-1,3-dihydro-2-benzofuran-5-yl)amino]-4-{[(1S)-2-hydroxy-1-phenylethyl]amino}pyrimidine-5-carboxamide], for which, on HPK1, the IC50 is below 50 nM and the “IRAK4/HPK1 Ratio” value is given as “B (B=10 to 50)”. The molecule also showed an IC50 on IRAK4 of 250 to 1000 nM.
As to `CC(C)(CO)c1noc(-c2cnc(Nc3ccc4c(c3)C(C)(C)OC4=O)nc2N[C@H](CO)c2ccccc2)n1` [Example 41, (S)-5-((4-((2-hydroxy-1-phenylethyl)amino)-5-(3-(1-hydroxy-2-methylpropan-2-yl)-1,2,4-oxadiazol-5-yl)pyrimidin-2-yl)amino)-3,3-dimethylisobenzofuran-1(3H)-one], the IC50 at HPK1 (setting [1]) is below 50 nM; on IRAK4 it was 50 to 250 nM. The “IRAK4/HPK1 Ratio” value on HPK1 is “C (C=>50)”.
Turning to `CC/N=C(\NCCCN(C)C)NNC(=O)c1cnc(Nc2ccc3c(c2)C(C)(C)OC3=O)nc1N[C@H](CO)c1ccccc1` [Example 59, 1-({2-[(3,3-dimethyl-1-oxo-1,3-dihydro-2-benzofuran-5-yl)amino]-4-{[(1S)-2-hydroxy-1-phenylethyl]amino}pyrimidin-5-yl}formohydrazido)-N-[3-(dimethylamino)propyl]-N′-ethylmethanimidamide], the IC50 at HPK1 (setting [1]) was below 50 nM; against IRAK4, 250 to 1000 nM. Besides, the “IRAK4/HPK1 Ratio” value at HPK1 is on record as “B (B=10 to 50)”.
Take `CCCc1noc(-c2cnc(Nc3ccc4c(c3)C(C)(C)OC4=O)nc2N[C@H](CO)c2ccccc2)n1` [Example 35, 5-[(4-{[(1S)-2-hydroxy-1-phenylethyl]amino}-5-(3-propyl-1,2,4-oxadiazol-5-yl)pyrimidin-2-yl)amino]-3,3-dimethyl-1,_3-dihydro-2-benzofuran-1-one]: the values for the IC50 on HPK1 (setting [1]) and against IRAK4 were below 50 nM and 250 to 1000 nM, respectively. Also, the “IRAK4/HPK1 Ratio” value on HPK1 is “C (C=>50)”.
`Cc1noc(-c2cnc(Nc3ccc4c(c3)C(C)(C)OC4=O)nc2NCc2ccccc2C(C)(C)O)n1` [Example 72, 5-{[4-({[2-(2-hydroxypropan-2-yl)phenyl]methyl}amino)-5-(3-methyl-1,2,4-oxadiazol-5-yl)pyrimidin-2-yl]amino}-3,3-dimethyl-1,3-dihydro-2-benzofuran-1-one]: the IC50 on HPK1 (setting [1]) was in the range of 50 to 250 nM; at IRAK4, 250 to 1000 nM. Moreover, the “IRAK4/HPK1 Ratio” value at HPK1 is reported as “B (B=10 to 50)”.
For `Cc1ccccc1CNC(=O)c1cnc(Nc2ccc3c(c2)C(C)(C)OC3=O)nc1N[C@H](CO)c1ccccc1` [Example 16, 2-[(3,3-dimethyl-1-oxo-1,3-dihydro-2-benzofuran-5-yl)amino]-4-{[(1S)-2-hydroxy-1-phenylethyl]amino}-N-[(2-methylphenyl)methyl]pyrimidine-5-carboxamide], the IC50 at HPK1 (setting [1]) fell in the range of 50 to 250 nM; at IRAK4 it was 250 to 1000 nM. Moreover, the “IRAK4/HPK1 Ratio” value on HPK1 is reported as “B (B=10 to 50)”.
Consider `CC(C)(O)C(=O)NNC(=O)c1cnc(Nc2ccc3c(c2)C(C)(C)OC3=O)nc1N[C@H](CO)c1ccccc1` [Example 60, 2-[(3,3-dimethyl-1-oxo-1,3-dihydro-2-benzofuran-5-yl)amino]-4-{[(1S)-2-hydroxy-1-phenylethyl]amino}-N′-(2-hydroxy-2-methylpropanoyl)pyrimidine-5-carbohydrazide], for which the IC50 at HPK1 (setting [1]) lay in the range of 50 to 250 nM; at IRAK4, 250 to 1000 nM. Also, the “IRAK4/HPK1 Ratio” value on HPK1 is listed as “B (B=10 to 50)”.
On to `CC1(C)OC(=O)c2ccc(Nc3cc(N[C@H](CO)c4ccc(F)cc4)c(-c4nc(C56CCN(CC5)CC6)no4)cn3)nc21` [Example 82, 2-{[5-(3-{1-azabicyclo[2.2.2]octan-4-yl}-1,2,4-oxadiazol-5-yl)-4-{1[(1S)-1-(4-fluorophenyl)-2-hydroxyethyl]amino}pyridin-2-yl]amino}-7,7-dimethyl-5H,7H-furo [3,4-b]pyridin-5-one], for which, at HPK1, the IC50 is below 50 nM and the “IRAK4/HPK1 Ratio” value is “C (C=>50)”. At IRAK4, this molecule registered an IC50 of 50 to 250 nM.
For `CC1(C)OC(=O)c2ccc(Nc3cc(N[C@H](CO)C4CC4)c(-c4nc(C5CC5)no4)cn3)cc21` [Example 79, 5-{[5-(3-cyclopropyl-1,2,4-oxadiazol-5-yl)-4-{[(1S)-1-cyclopropyl-2-hydroxyethyl]amino}pyridin-2-yl]amino}-3,3-dimethyl-1,3-dihydro-2-benzofuran-1-one], the IC50 at HPK1 (setting [1]) lay within 50 to 250 nM; against IRAK4, 250 to 1000 nM. The “IRAK4/HPK1 Ratio” value on HPK1 was “B (B=10 to 50)”.
`CC1(C)OC(=O)c2ccc(Nc3ncc(-c4nc(-c5ccccn5)no4)c(N[C@H](CO)c4ccccc4)n3)cc21` [Example 42, 5-[(4-{[(1S)-2-hydroxy-1-phenylethyl]amino}-5-[3-(pyridin-2-yl)-1,2,4-oxadiazol-5-yl]pyrimidin-2-yl)amino]-3,3-dimethyl-1,3-dihydro-2-benzofuran-1-one]: the IC50 on HPK1 (setting [1]) is below 50 nM; at IRAK4, 250 to 1000 nM. For the same molecule, the “IRAK4/HPK1 Ratio” value on HPK1 is listed as “C (C=>50)”.
Take `CC1(C)OC(=O)c2ccc(Nc3cc(N[C@H](CO)c4ccccc4)c(-c4nc(C5CN6CCC5(F)CC6)no4)cn3)nc21` (stereo partly drawn) [Example 83, 2-{[5-(3-{4-fluoro-1-azabicyclo[2.2.2]octan-3-yl}-1,2,4-oxadiazol-5-yl)-4-{[(1S)-2-hydroxy-1-phenylethyl]amino}pyridin-2-yl]amino}-7,7-dimethyl-5H,7H-furo [3,4-b]pyridin-5-one]: the IC50 against HPK1 was below 50 nM; on IRAK4, 50 to 250 nM. Also, at HPK1, the “IRAK4/HPK1 Ratio” value is “C (C=>50)”.
